Here are results for 29 compounds from paper PMC4890880 (ACS infectious diseases, 2016).

For assay [1], the system named is HepG2-A16-CD81EGFP cells. The assay is described as follows: cells. Conditions: Homo sapiens, HepG2, read-out: % inhibition.
The test system of assay [2] is Plasmodium berghei (Pb-Luc) exoerythrocytic-stage parasites. The experiment in a line: microbe, parasite or virus in culture.
Assay [3] relates to HepG2-A16-CD81EGFP cells. The assay is described as follows: cells. The following applies: Homo sapiens, HepG2, read-out: % inhibition. The source holds these as a separate data set.
The mark [4] stands for this setting: read-out: Inhibition% @ 50 uM rep1.
[5] abbreviates: read-out: Inhibition% @ 50 uM rep2.

Like-named read-outs stand apart in the source and are kept apart here.

For the compound `Cc1cccc(Nc2nc(N)c3ccccc3n2)c1` [MMV019110], the inhibition at 50 µM with HepG2-A16-CD81EGFP cells [1] came to 91.6%; in assay [2] (setting [4]), 99%; in assay [2] (setting [5]), 98%; in the assay with HepG2-A16-CD81EGFP cells [3] it was 92%.

As for `CCN(Cc1ccccc1)C1CCN(Cc2cc(Br)ccc2O)CC1` [MMV019127], the inhibition at 50 µM was determined as 82.2% in the assay on HepG2-A16-CD81EGFP cells [1], 102% in assay [2] (setting [4]), 104% in assay [2] (setting [5]) and 86% with HepG2-A16-CD81EGFP cells [3].

As to `CCOc1cccc(C(=O)Nc2ccc(-c3nc4ccccc4[nH]3)cc2)c1` [MMV019202], the inhibition at 50 µM was 76.2% in the assay with HepG2-A16-CD81EGFP cells [1], 101% in assay [2] (setting [4]), 100% in assay [2] (setting [5]) and 88.4% with HepG2-A16-CD81EGFP cells [3].

Regarding `COc1ccc(-n2ccnc2SCC(=O)Nc2cc(C)ccc2C)c(OC)c1` [MMV019258], the inhibition at 50 µM in the assay on HepG2-A16-CD81EGFP cells [1] came to 63.1%; in assay [2] (setting [4]) it was 102%; in assay [2] (setting [5]), 102%; in the assay on HepG2-A16-CD81EGFP cells [3] it was 80.6%.

For the compound `CCC1(C)CC(CCNCc2ccccc2O)(c2ccc(C)cc2)CCO1` (centres unmarked) [MMV019406], the inhibition at 50 µM in the assay on HepG2-A16-CD81EGFP cells [1] was determined as 96.7%; in assay [2] (setting [4]), 102%; in assay [2] (setting [5]), 102%; in the assay with HepG2-A16-CD81EGFP cells [3] it was 98.3%.

`O=C(Nc1ccc(N2CCCCC2)c(Cl)c1)c1ccc(Br)o1` [MMV019700]: the inhibition at 50 µM with HepG2-A16-CD81EGFP cells [1] was determined as 97.5%; in assay [2] (setting [4]), 104%; in assay [2] (setting [5]), 106%; with HepG2-A16-CD81EGFP cells [3] it was 99%.

For the compound `Fc1ccc2[nH]c3c(NCCCN4CCOCC4)ncnc3c2c1` [MMV019871], the inhibition at 50 µM amounted to 58.8% in the assay with HepG2-A16-CD81EGFP cells [1], 103% in assay [2] (setting [4]), 103% in assay [2] (setting [5]) and 74.2% in the assay on HepG2-A16-CD81EGFP cells [3].

For `O=C(NC1CCN(Cc2ccccc2)CC1)c1cc(-c2ccncc2)nc2ccc(Cl)cc12` [MMV020275], the inhibition at 50 µM in the assay on HepG2-A16-CD81EGFP cells [1] turned out to be 89.1%; in assay [2] (setting [4]), 52%; in assay [2] (setting [5]), 39%; in the assay with HepG2-A16-CD81EGFP cells [3] it was 90.6%.

As for `CC1CN(C(=O)c2sc3ccccc3c2Cl)CC(C)O1` (centres unmarked) [MMV020492], the inhibition at 50 µM was determined as 25% with HepG2-A16-CD81EGFP cells [1], 44% in assay [2] (setting [4]), 44% in assay [2] (setting [5]) and 23.2% in the assay with HepG2-A16-CD81EGFP cells [3].

For `CNCCCNc1ccnc2cc(Cl)ccc12` [MMV020500], the inhibition at 50 µM in the assay on HepG2-A16-CD81EGFP cells [1] came to 101%; in assay [2] (setting [4]), 104%; in assay [2] (setting [5]), 105%; in the assay on HepG2-A16-CD81EGFP cells [3], 101%.

Consider `CC1CCN(Cc2ccc(NC(=O)c3cc4ccc5cccnc5c4[nH]3)cc2)CC1` [MMV020549], for which the inhibition at 50 µM was found to be 95.4% in the assay on HepG2-A16-CD81EGFP cells [1], 104% in assay [2] (setting [4]), 106% in assay [2] (setting [5]) and 96.7% in the assay with HepG2-A16-CD81EGFP cells [3].

In the case of `COc1ccc(-c2nonc2NC(=O)c2cccc(Cl)c2)cc1OC` [MMV020660], the inhibition at 50 µM in the assay on HepG2-A16-CD81EGFP cells [1] was found to be 92%; in assay [2] (setting [4]), 104%; in assay [2] (setting [5]), 106%; in the assay on HepG2-A16-CD81EGFP cells [3], 93.3%.

As for `Oc1ccccc1CNCC12CC3CC(CC(C3)C1)C2` [MMV020788], the inhibition at 50 µM is 94% in the assay on HepG2-A16-CD81EGFP cells [1], 102% in assay [2] (setting [4]), 103% in assay [2] (setting [5]) and 95.9% in the assay with HepG2-A16-CD81EGFP cells [3].

With `COc1ccc(Br)cc1C1Nc2ccc3ccccc3c2C2=C1C(=O)CC(c1ccccc1)C2` (centres unmarked) [MMV020885], the inhibition at 50 µM with HepG2-A16-CD81EGFP cells [1] worked out at 69.1%; in assay [2] (setting [4]), 102%; in assay [2] (setting [5]), 102%; with HepG2-A16-CD81EGFP cells [3] it was 75.1%.

Turning to `COc1cc(SC)ccc1C(=O)N1CCCC(C)C1` (centres unmarked) [MMV056726], the inhibition at 50 µM came to 65.4% in the assay with HepG2-A16-CD81EGFP cells [1], 86% in assay [2] (setting [4]), 93% in assay [2] (setting [5]) and 67.3% in the assay on HepG2-A16-CD81EGFP cells [3].

As for `CCOc1ccc(C2N(C)c3ccccc3N2C)cc1` [MMV075490], the inhibition at 50 µM with HepG2-A16-CD81EGFP cells [1] was 88%; in assay [2] (setting [4]), 103%; in assay [2] (setting [5]) it was 102%; with HepG2-A16-CD81EGFP cells [3], 89.5%.

Consider `CCOc1cc(Br)c(C(C)NC(=O)c2cccc(OC)c2)cc1OCC` (centres unmarked) [MMV665796], for which the inhibition at 50 µM in the assay with HepG2-A16-CD81EGFP cells [1] stood at 88.4%; in assay [2] (setting [4]), 103%; in assay [2] (setting [5]) it was 104%; with HepG2-A16-CD81EGFP cells [3], 96.9%.

In the case of `FC(F)(F)c1cccc(Nc2nc(-c3ccccc3)nc3ncccc23)c1` [MMV665798], the inhibition at 50 µM with HepG2-A16-CD81EGFP cells [1] is 95.3%; in assay [2] (setting [4]), 103%; in assay [2] (setting [5]), 104%; in the assay with HepG2-A16-CD81EGFP cells [3], 98.3%.

Consider `CCOc1cc(Cl)c(C(C)NC(=O)c2cccc(OC)c2)cc1OCC` (centres unmarked) [MMV665803], for which the inhibition at 50 µM came to 86.5% in the assay with HepG2-A16-CD81EGFP cells [1], 104% in assay [2] (setting [4]), 106% in assay [2] (setting [5]) and 97.7% in the assay with HepG2-A16-CD81EGFP cells [3].

`CCOc1ccc(-c2nonc2NC(=O)c2cccc(C)c2)cc1OCC` [MMV665805]: the inhibition at 50 µM in the assay on HepG2-A16-CD81EGFP cells [1] was 0.576%; in assay [2] (setting [4]), 44%; in assay [2] (setting [5]) it was 72%; with HepG2-A16-CD81EGFP cells [3] it was 6.54%.

`Cc1c(C)n(CC(O)CNC2CCCCC2C)c2ccccc12` (centres unmarked) [MMV665806]: the inhibition at 50 µM in the assay with HepG2-A16-CD81EGFP cells [1] came out at 31.3%; in assay [2] (setting [4]), 90%; in assay [2] (setting [5]) it was 92%; in the assay with HepG2-A16-CD81EGFP cells [3], 47.6%.

On to `COc1ccc2c(=O)cc(C(Cl)(Cl)Cl)oc2c1` [MMV665820], for which the inhibition at 50 µM with HepG2-A16-CD81EGFP cells [1] was 96.4%; in assay [2] (setting [4]), 103%; in assay [2] (setting [5]), 102%; in the assay with HepG2-A16-CD81EGFP cells [3] it was 98.1%.

As to `COc1cccc(NC(=O)Cn2c(C)c(C#N)c3ccccc32)c1` [MMV665826], the inhibition at 50 µM in the assay on HepG2-A16-CD81EGFP cells [1] came to 49.1%; in assay [2] (setting [4]) it was 102%; in assay [2] (setting [5]), 101%; with HepG2-A16-CD81EGFP cells [3], 77.8%.

Take `Oc1ccc(Cl)cc1CNc1nc2ccccc2[nH]1` [MMV665850]: the inhibition at 50 µM in the assay with HepG2-A16-CD81EGFP cells [1] was determined as 98.1%; in assay [2] (setting [4]), 103%; in assay [2] (setting [5]) it was 104%; with HepG2-A16-CD81EGFP cells [3], 98.7%.

`CCOc1ccc(-c2nc(NC(=O)c3cccc(S(C)(=O)=O)c3)sc2C)cc1` [MMV665913]: the inhibition at 50 µM with HepG2-A16-CD81EGFP cells [1] was 60.5%; in assay [2] (setting [4]), 95%; in assay [2] (setting [5]) it was 98%; in the assay on HepG2-A16-CD81EGFP cells [3], 62.9%.

Turning to `COc1ccccc1N1CCN(C(CNS(=O)(=O)c2ccc(Cl)cc2)c2cccnc2)CC1` (centres unmarked) [MMV665914], the inhibition at 50 µM in the assay on HepG2-A16-CD81EGFP cells [1] came out at 49.3%; in assay [2] (setting [4]), 96%; in assay [2] (setting [5]), 96%; in the assay with HepG2-A16-CD81EGFP cells [3], 59.7%.

As for `COc1ccc(-c2nc(NC(=O)CS(=O)(=O)c3ccc(F)cc3)sc2C)cc1` [MMV665915], the inhibition at 50 µM came to 92.4% in the assay on HepG2-A16-CD81EGFP cells [1], 101% in assay [2] (setting [4]), 100% in assay [2] (setting [5]) and 95.2% in the assay on HepG2-A16-CD81EGFP cells [3].

`O=C(Nc1ccc(Cl)cc1)N1CCN(c2ccc3nncn3n2)CC1` [MMV665917]: the inhibition at 50 µM amounted to 38.3% with HepG2-A16-CD81EGFP cells [1], 60% in assay [2] (setting [4]), 62% in assay [2] (setting [5]) and 8.42% in the assay with HepG2-A16-CD81EGFP cells [3].

`O=C(CSc1ccc2nnc(-c3cccc(F)c3)n2n1)Nc1ccc2c(c1)OCO2` [MMV665918]: the inhibition at 50 µM with HepG2-A16-CD81EGFP cells [1] is -2.83%; in assay [2] (setting [4]), -43%; in assay [2] (setting [5]), -48%; in the assay with HepG2-A16-CD81EGFP cells [3], 0.859%.

One may read the inhibition as the change of the read-out against control, counted positive when it falls.
